Measured values from PubChem BioAssay (NCI).
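How tested: cells in 96-well plates exposed to compound for 48 hours at five concentrations. GI50: concentration for 50% inhibition of growth. Definition used: TGI = concentration required for complete inhibition of growth.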

Tests used:
Experiment in all cases: inhibition of tumour cell growth, NCI panel, 48 h
OVCAR-3 ovarian = system: OVCAR-3 ovarian
CAKI-1 renal = system: CAKI-1 renal
U251 CNS = system: U251 CNS
NCI-H226 lung = system: NCI-H226 lung
SK-OV-3 ovarian = system: SK-OV-3 ovarian
SNB-75 CNS = system: SNB-75 CNS
M14 melanoma = system: M14 melanoma
NCI-H23 lung = system: NCI-H23 lung
EKVX NSCLC = system: EKVX NSCLC
SF-295 CNS = system: SF-295 CNS
NCI-H460 lung = system: NCI-H460 lung
MALME-3M melanoma = system: MALME-3M melanoma
HS 578T breast = system: HS 578T breast
UACC-62 melanoma = system: UACC-62 melanoma
NCI/ADR-RES ovarian = system: NCI/ADR-RES ovarian
COLO 205 colon = system: COLO 205 colon
A549 NSCLC = system: A549 NSCLC
HOP-62 NSCLC = system: HOP-62 NSCLC
OVCAR-8 ovarian = system: OVCAR-8 ovarian
HL-60(TB) leukemia = system: HL-60(TB) leukemia
RXF 393 renal = system: RXF 393 renal
MCF7 breast = system: MCF7 breast
SNB-19 CNS = system: SNB-19 CNS
SN12C renal = system: SN12C renal
A498 renal = system: A498 renal
HCT-116 colon = system: HCT-116 colon
SF-539 CNS = system: SF-539 CNS
NCI-H522 lung = system: NCI-H522 lung

Clc1ccc(/C=N/Nc2ncnc3sc4c(c23)CCN(Cc2ccccc2)C4)cc1
TGI (OVCAR-3 ovarian): 5.33 µM | GI50 (CAKI-1 renal): > 100 µM | TGI (CAKI-1 renal): > 100 µM | GI50 (U251 CNS): 4 µM | TGI (U251 CNS): 16.6 µM | GI50 (NCI-H226 lung): 2.31 µM | TGI (NCI-H226 lung): 7.41 µM | GI50 (SK-OV-3 ovarian): 20.8 µM | TGI (SK-OV-3 ovarian): 78.4 µM | GI50 (SNB-75 CNS): 3.21 µM | TGI (SNB-75 CNS): 41.2 µM | GI50 (M14 melanoma): 2.65 µM | TGI (M14 melanoma): 7.66 µM | GI50 (NCI-H23 lung): 12 µM | TGI (NCI-H23 lung): > 100 µM | GI50 (EKVX NSCLC): 65.6 µM | TGI (EKVX NSCLC): > 100 µM | GI50 (SF-295 CNS): 4.19 µM | TGI (SF-295 CNS): 21.6 µM | GI50 (NCI-H460 lung): 2.26 µM | TGI (NCI-H460 lung): 4.88 µM | GI50 (MALME-3M melanoma): 4.96 µM | TGI (MALME-3M melanoma): > 100 µM | GI50 (HS 578T breast): 6.33 µM | TGI (HS 578T breast): > 100 µM | GI50 (UACC-62 melanoma): 30.5 µM | TGI (UACC-62 melanoma): > 100 µM | GI50 (NCI/ADR-RES ovarian): 2.34 µM | TGI (NCI/ADR-RES ovarian): 5.84 µM | GI50 (COLO 205 colon): 3.52 µM | TGI (COLO 205 colon): 12.9 µM | GI50 (A549 NSCLC): 12.1 µM | TGI (A549 NSCLC): > 100 µM | GI50 (HOP-62 NSCLC): 4.8 µM | TGI (HOP-62 NSCLC): 25.2 µM | GI50 (OVCAR-8 ovarian): 1.95 µM | TGI (OVCAR-8 ovarian): 3.99 µM | GI50 (HL-60(TB) leukemia): 5.59 µM | TGI (HL-60(TB) leukemia): 43 µM | GI50 (RXF 393 renal): 10.2 µM | TGI (RXF 393 renal): 26.6 µM | GI50 (MCF7 breast): 2.98 µM | TGI (MCF7 breast): 15 µM | GI50 (SNB-19 CNS): 6.06 µM | TGI (SNB-19 CNS): > 100 µM | GI50 (SN12C renal): 9.09 µM | TGI (SN12C renal): > 100 µM | GI50 (A498 renal): 25.8 µM | TGI (A498 renal): 59.2 µM | GI50 (HCT-116 colon): 3.04 µM | TGI (HCT-116 colon): 10.4 µM | GI50 (SF-539 CNS): 4.1 µM | TGI (SF-539 CNS): 18.2 µM | GI50 (NCI-H522 lung): 23.9 µM | TGI (NCI-H522 lung): > 100 µM
